In EP0563386A1, “ANTICANCER COMPOSITION AND COMPOUND” (NIPPON SHINYAKU COMPANY, LIMITED, priority 1990, dated 1992):

Key:
MDCK cells = assay: Inhibition of uptake of 5-FU in MDCK cells (Test Example 4); assay type: cell-based; details: Canis lupus familiaris, 3H-5FU uptake versus control, harvest time (1, 3 or 5 hours) not given; for inhibition at 100 µM: 10⁻⁴ M; for inhibition at 10 µM: 10⁻⁵ M; for inhibition at 1 µM: 10⁻⁶ M
Procedure: In the assay of inhibitory activity against the 5-FU uptake of MDCK cells, the anticancer adjuvant activity of the test compound can be estimated based on the inhibitory effect on the uptake of a known anticancer drug.
The inhibitory effect of the compound of this invention on the uptake of 5-FU in MDCK cells was investigated. MDCK cells were seeded on a 24-well culture plate. When the cells became confluent, the test compound (10⁻⁶ - 10⁻⁴ M) and 3H-5FU ([…]) were simultaneously added to the medium and 1, 3 and 5 hours later, cells were harvested to determine the amount of 3H-5FU taken up with a liquid scintillation counter. The percent inhibition to control was calculated.

[1] = Anticancer effect in unspecified in vitro test systems (Test Example 6); details: in vitro test systems which the inventor used, not described
Colon 26 tumor cells [2] = assay: Colon 26 percent tumor inhibition, alone and combined with 5-FU derivatives (Test Example 3); assay type: in vivo, BALB/c mice; details: for % Inhibition, Combination: test compound 10 mg/kg orally once daily concurrently with 5-FU derivatives (90 mg/kg total); for % Inhibition, Single drug: test compound 10 mg/kg orally once daily, 5-FU derivatives 30 mg/kg each (90 mg/kg total) orally
Procedure: The additive effect of 5-FU derivative and the compound of this invention was tested in terms of percent tumor inhibition. Colon 26 tumor cells were transplanted subcutaneously to groups of 8 BALB/c mice and the treatment was instituted when the tumor volume amounted to about 50-100 mm³. Each of the test com pound was suspended in 0.5% methylcellulose and admin istered orally in a dose of 10 mg/kg once daily for 14 days in (1) and for 21 days in (2) and (3). As 5-FU derivatives Mifurol™, Furtulon™ and Sunfural™ were used, and all the drugs were administered orally in a dose of 30mg/kg, or 90 mg/kg as total dose of three drugs. The combination group received these 5-FU derivatives concurrently with the test drug. The single drug group received each test compound alone orally.

Colon 26 tumor cells [3] = assay: Colon 26 life-prolonging effect / survival (Test Example 5); assay type: in vivo, BALB/c mice; details: 10 mg/kg orally once daily; for life-prolonging effect: Test (2): groups of six, eighty percent of control group died on day 63, Fig. 4
Procedure: Furthermore, in the assay of growth inhibitory activity against Colon 26, the life-prolonging effect can be evaluated from the mortality of animals during a period of 4 to 6 weeks after administration.
• (1) Colon 26 tumor cells were transplanted subcutane ously in groups of six BALB/c mice and the treatment was instituted when the tumor volume amounted to about 100 - 200 mm³. The test drug suspended in 0.5% methyl cellulose was administered orally in a dose of 10 mg/kg once daily during the test period. All animals in the control group (no test drug was contained at all) died on day 34 and all animals given 5-FU derivative died on day 40, whereas none of the animals given the compound of this invention (compound No. 169) died even after day 40. The life-prolonging effect of the compound of this invention is clear. • (2) As in the above (1), Colon 26 tumor cells were transplanted subcutaneously in groups of six BALB/c mice and treatment was instituted when the tumor volume amounted to about 100-200 mm³. The test drug suspended in 0.5% methylcellulose was administered orally in a dose of 10 mg/kg once daily during the test period.
The open circle stands for control, the open square for the F-5U derivative group and the closed square for the group given the compound of this invention. The survival rate (%) is plotted on the vertical axis and the number of days after drug administration on the horizontal axis.
The open circle stands for the control group, the open square for Compound No. 175 group, the closed circle for Compound No. 210 group, the open triangle for Compound No. 213 group and the closed square for Compound 219 group. The survival rate (%) is plotted on the vertical axis and the number of days after drug administration on the horizontal axis.

Row | Structure (SMILES) | inhibition at 100 µM (MDCK cells) | inhibition at 10 µM (MDCK cells) | inhibition at 1 µM (MDCK cells) | further results
1 | Nc1nc(N)nc(-c2ccccc2NCc2ccccc2)n1 [Compound No. 356, 2,4-Diamino-6-(2-benzylaminophenyl)-1,3,5-triazine] | 51% | 73% | 91% | –
2 | Nc1nc(N)nc(-c2ccccc2)n1 [compound 100, 2,4-Diamino-6-phenyl-1,3,5-triazine] | – | – | – | anticancer effect in vitro [1]: strong anticancer effect
3 | Nc1nc(N)nc(-c2cc(Br)ccc2F)n1 [compound 215, 2,4-Diamino-6-(5-bromo-2-fluorophenyl)-1,3,5-triazine] | – | – | – | anticancer effect in vitro [1]: strong anticancer effect
4 | COCCOc1ccc(Cl)cc1-c1nc(N)nc(N)n1 [Compound No. 221, 2,4-Diamino-6-[5-chloro-2-(2-methoxyethoxy)phenyl]-1,3,5-triazine] | – | – | – | % Inhibition, Combination (Colon 26 tumor cells [2]; Test (3): 21 days): 76.5%; % Inhibition, Single drug (Colon 26 tumor cells [2]; Test (3): 21 days): 18.1%
5 | Nc1nc(N)nc(-c2ccc(OCc3ccccc3)cc2)n1 [Compound No. 345, 2,4-Diamino-6-(4-benzyloxyphenyl)-1,3,5-triazine] | 70% | 63% | 63% | –
6 | Cc1ccc(Cl)cc1-c1nc(N)nc(N)n1 [compound 380, 2,4-Diamino-6-(5-chloro-2-methylphenyl)-1,3,5-triazine] | – | – | – | anticancer effect in vitro [1]: strong anticancer effect
7 | COc1ccccc1-c1nc(N)nc(N)n1 [compound 255, 2,4-Diamino-6-(2-methoxyphenyl)-1,3,5-triazine] | – | – | – | anticancer effect in vitro [1]: strong anticancer effect
8 | O=C(Nc1nc(NC(=O)c2ccccc2)nc(-c2ccccc2)n1)c1ccccc1 [Compound No. 104, 2,4-Dibenzoylamino-6-phenyl-1,3,5-triazine] | 44% | 50% | 60% | –
9 | Nc1nc(N)nc(-c2ccc(Br)c(Br)c2)n1 [Compound No. 405, 2,4-Diamino-6-(3,4-dibromophenyl)-1,3,5-triazine] | 62% | 59% | – | –
10 | CC(=O)c1cccc(-c2nc(N)nc(N)n2)c1 [Compound No. 347, 2,4-Diamino-6-(3-acetylphenyl)-1,3,5-triazine] | 49% | 61% | – | –
11 | Nc1nc(N)[n+]([O-])c(-c2cc(Cl)ccc2Cl)n1 [compound 1001, 2,4-Diamino-6-(2,5-dichlorophenyl)-1,3,5-triazine N-oxide] | – | – | – | anticancer effect in vitro [1]: strong anticancer effect
12 | COc1ccc(-c2nc(N)nc(NC(=O)c3cccnc3)n2)cc1OC [Compound No. 264, 2-Amino-4-nicotinoylamino-6-(3,4-dimethoxyphenyl)-1,3,5-triazine] | 56% | 62% | 89% | –
13 | CCONc1nc(N)nc(-c2cc(Cl)ccc2Cl)n1 [compound 183, 2-Amino-4-ethoxyamino-6-(2,5-dichlorophenyl)-1,3,5-triazine] | – | – | – | anticancer effect in vitro [1]: strong anticancer effect
14 | Nc1nc(N)nc(-c2ccc(Cl)cc2Br)n1 [Compound No. 210, 2,4-Diamino-6-(2-bromo-4-chlorophenyl)-1,3,5-triazine] | – | – | – | life-prolonging effect (Colon 26 tumor cells [3]): definite life-prolonging effect; % Inhibition, Combination (Colon 26 tumor cells [2]; Test (2): 21 days): 86.0%
15 | COc1ccc(-c2nc(N)nc(N)n2)cc1OC [Compound No. 259, 2,4-Diamino-6-(3,4-dimethoxyphenyl)-1,3,5-triazine] | 62% | 66% | 77% | % Inhibition, Combination (Colon 26 tumor cells [2]; Test (1): 14 days): 45.6%; % Inhibition, Single drug (Colon 26 tumor cells [2]; Test (1): 14 days): 9.2%
16 | Nc1nc(NC(=O)c2cccnc2)nc(-c2cc(Cl)ccc2Cl)n1 [Compound No. 262, 2-Amino-4-nicotinoylamino-6-(2,5-dichlorophenyl)-1,3,5-triazine] | 46% | 58% | – | % Inhibition, Combination (Colon 26 tumor cells [2]; Test (3): 21 days): 48.8%; % Inhibition, Single drug (Colon 26 tumor cells [2]; Test (3): 21 days): 19.2%
17 | Nc1nc(N)nc(-c2ccc(Br)c(Cl)c2)n1 [Compound No. 219, 2,4-Diamino-6-(4-bromo-3-chlorophenyl)-1,3,5-triazine] | 60% | 69% | 86% | life-prolonging effect (Colon 26 tumor cells [3]): definite life-prolonging effect; % Inhibition, Combination (Colon 26 tumor cells [2]; Test (2): 21 days): 75.5%; % Inhibition, Single drug (Colon 26 tumor cells [2]; Test (2): 21 days): 10.0%
18 | Nc1nc(NC(=O)c2ccccc2)nc(-c2ccccc2)n1 [Compound No. 103, 2-Amino-4-benzoylamino-6-phenyl-1,3,5-triazine] | 50% | 58% | – | –
19 | Nc1nc(N)nc(-c2cccc(Cl)c2)n1 [Compound No. 159, 2,4-Diamino-6-(3-chlorophenyl)-1,3,5-triazine] | – | – | – | % Inhibition, Combination (Colon 26 tumor cells [2]; Test (1): 14 days): 50.9%; % Inhibition, Single drug (Colon 26 tumor cells [2]; Test (1): 14 days): 2.0%
20 | Nc1nc(N)nc(-c2ccc(Cl)c(Cl)c2)n1 [Compound No. 156, 2,4-Diamino-6-(3,4-dichlorophenyl)-1,3,5-triazine] | 56% | 73% | 85% | –
21 | Nc1nc(NC(=O)c2cccnc2)nc(-c2ccc(Cl)c(Cl)c2)n1 [Compound No. 263, 2-Amino-4-nicotinoylamino-6-(3,4-dichlorophenyl)-1,3,5-triazine] | – | – | – | % Inhibition, Combination (Colon 26 tumor cells [2]; Test (1): 14 days): 47.9%; % Inhibition, Single drug (Colon 26 tumor cells [2]; Test (1): 14 days): 7.0%; % Inhibition, Combination (Colon 26 tumor cells [2]; Test (3): 21 days): 52.0%; % Inhibition, Single drug (Colon 26 tumor cells [2]; Test (3): 21 days): 8.9%
22 | Nc1nc(N)nc(-c2cc(Cl)ccc2Cl)n1 [Compound No. 169, 2,4-Diamino-6-(2,5-dichlorophenyl)-1,3,5-triazine] | – | – | – | survival: day on which the animals died (Colon 26 tumor cells [3]; Test (1): groups of six, control group all died on day 34, Fig. 3): > 40 days; % Inhibition, Combination (Colon 26 tumor cells [2]; Test (1): 14 days): 54.6%; % Inhibition, Single drug (Colon 26 tumor cells [2]; Test (1): 14 days): 18.0%; % Inhibition, Combination (Colon 26 tumor cells [2]; Test (2): 21 days): 84.1%; % Inhibition, Single drug (Colon 26 tumor cells [2]; Test (2): 21 days): 11.6%; % Inhibition, Combination (Colon 26 tumor cells [2]; Test (3): 21 days): 49.9%; % Inhibition, Single drug (Colon 26 tumor cells [2]; Test (3): 21 days): 10.7%
23 | O=C(Nc1nc(NC(=O)c2cccnc2)nc(-c2ccccc2)n1)c1cccnc1 [Compound No. 102, 2,4-Dinicotinoylamino-6-phenyl-1,3,5-triazine] | 62% | 59% | 86% | –
24 | Nc1nc(N)nc(-c2cc(Br)ccc2Cl)n1 [Compound No. 213, 2,4-Diamino-6-(5-bromo-2-chlorophenyl)-1,3,5-triazine] | – | – | – | life-prolonging effect (Colon 26 tumor cells [3]): definite life-prolonging effect; % Inhibition, Combination (Colon 26 tumor cells [2]; Test (2): 21 days): 70.4%
25 | Nc1nc(N)nc(-c2cc([N+](=O)[O-])ccc2Cl)n1 [compound 374, 2,4-Diamino-6-(2-chloro-5-nitrophenyl)-1,3,5-triazine] | – | – | – | anticancer effect in vitro [1]: strong anticancer effect
26 | Nc1cccc(-c2nc(N)nc(N)n2)c1 [Compound No. 352, 2,4-Diamino-6-(3-aminophenyl)-1,3,5-triazine] | 64% | 69% | – | –
